Assay results: patent publication US20100105655A1, “NOVEL COMPOUNDS 515” (ASTRAZENECA AB, priority 2008, published 2010)
pIC50: −log10 of the molar value.

Target: T1, IGFR kinase (Homo sapiens, UniProt P08069)
T1 construct: purchased Millipore
Experiment: Enzyme assay (c), IGFR kinase, Caliper LabChip
Assay type: biochemical
Details: 30 nM IGFR kinase, 6 uM ATP, 3 uM peptide mix; read-out: IGFR IC50
Procedure: For Echo dosing the solvent was 100% DMSO. A master plate was prepared with 40 ul of 10 mM stock solution of the test compound in DMSO in quadrant 1 of a Labcyte 384 well plate. A 1 in 100 dilution was made from quadrant 1 into quadrant 2 by removing 0.4 ul and adding it to 39.6 ul of DMSO. Subsequent 1 in 100 dilutions were made into quadrant 3 from quadrant 2 and quadrant 4 from quadrant 3.
Multiple 2.5 nl droplets were dispensed from each quadrant of the master plate to generate the dose range that was required in the test. The dose range most commonly used was as follows: 100 uM, 30 uM, 10 uM, 3 uM, 1 uM, 0.3 uM, 0.1 uM, 0.03 uM, 0.01 uM, 0.003 uM, 0.001 uM, 0.0001 uM. Each well was backfilled with dimethyl sulfoxide (DMSO) to a total volume of 120 nl, such that when the enzyme and substrate mix was added the final DMSO concentration was 1%.
DMSO was added to max control wells as 120 nl, minimum control wells were treated with 120 nl of compound at a concentration that inhibited the enzyme activity 100%.
Integration of the substrate and product peaks was carried out using Caliper LabChip software and IC50 curves were calculated using Origin™ software.

T1 sequence (P08069 31-1367): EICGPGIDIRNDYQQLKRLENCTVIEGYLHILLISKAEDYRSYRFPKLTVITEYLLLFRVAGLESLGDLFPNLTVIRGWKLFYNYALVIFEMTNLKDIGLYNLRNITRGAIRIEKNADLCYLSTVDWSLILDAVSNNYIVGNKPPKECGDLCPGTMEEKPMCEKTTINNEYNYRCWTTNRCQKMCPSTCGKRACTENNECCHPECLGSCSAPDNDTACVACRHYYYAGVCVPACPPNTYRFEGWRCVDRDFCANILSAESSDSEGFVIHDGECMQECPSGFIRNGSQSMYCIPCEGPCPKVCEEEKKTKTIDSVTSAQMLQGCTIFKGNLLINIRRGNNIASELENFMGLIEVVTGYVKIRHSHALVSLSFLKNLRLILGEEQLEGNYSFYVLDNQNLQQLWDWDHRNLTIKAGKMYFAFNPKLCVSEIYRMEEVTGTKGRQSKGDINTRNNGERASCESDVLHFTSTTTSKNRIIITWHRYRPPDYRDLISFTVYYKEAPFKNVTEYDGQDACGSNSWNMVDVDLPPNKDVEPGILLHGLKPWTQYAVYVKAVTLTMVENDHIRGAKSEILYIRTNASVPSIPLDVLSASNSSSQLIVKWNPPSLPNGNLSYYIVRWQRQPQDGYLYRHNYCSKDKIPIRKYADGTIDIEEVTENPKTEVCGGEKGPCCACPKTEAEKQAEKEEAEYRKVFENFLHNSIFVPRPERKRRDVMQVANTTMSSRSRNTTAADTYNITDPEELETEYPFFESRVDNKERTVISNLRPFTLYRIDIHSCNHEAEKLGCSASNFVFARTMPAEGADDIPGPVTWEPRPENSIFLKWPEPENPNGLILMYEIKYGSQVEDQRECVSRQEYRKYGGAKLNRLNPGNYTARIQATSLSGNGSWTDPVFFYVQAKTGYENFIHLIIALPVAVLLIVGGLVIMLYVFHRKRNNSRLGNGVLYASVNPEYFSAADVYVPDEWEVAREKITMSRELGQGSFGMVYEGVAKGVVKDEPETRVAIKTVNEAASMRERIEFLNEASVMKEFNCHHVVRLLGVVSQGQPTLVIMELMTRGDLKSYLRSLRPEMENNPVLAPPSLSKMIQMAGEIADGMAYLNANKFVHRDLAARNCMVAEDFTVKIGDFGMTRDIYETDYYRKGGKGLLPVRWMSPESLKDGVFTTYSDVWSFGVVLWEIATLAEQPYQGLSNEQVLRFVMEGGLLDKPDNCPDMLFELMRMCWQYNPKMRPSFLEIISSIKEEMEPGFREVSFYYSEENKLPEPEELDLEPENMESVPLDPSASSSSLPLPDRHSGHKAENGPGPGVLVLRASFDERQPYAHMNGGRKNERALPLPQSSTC

`COc1cc(C2CCCCN2C(C)=O)ccc1Nc1ncc(Cl)c(-c2cnc3ccccn23)n1` (centres unmarked) [Example 3.25, 1-[2-[4-[(5-chloro-4-imidazo[1,2-a]pyridin-3-yl-pyrimidin-2-yl)amino]-3-methoxy-phenyl]-1-piperidyl]ethanone] and `COc1cc(N2CCN(C(C)=O)C(C)C2)ccc1Nc1ncc(Cl)c(-c2cnc3ccccn23)n1` (centres unmarked) [Example 3.36, 1-[4-[4-[(5-chloro-4-imidazo[1,2-a]pyridin-3-yl-pyrimidin-2-yl)amino]-3-methoxy-phenyl]-2-methyl-piperazin-1-yl]ethanone] are within 0.2 log units of each other in pIC50: 8.00 for the first, 8.10 for the second.

Going from `COc1cc(CN2CCC2)ccc1Nc1ncc(Cl)c(-c2cnc3ccccn23)n1` [Example 21.10, N-[4-(azetidin-1-ylmethyl)-2-methoxy-phenyl]-5-chloro-4-imidazo[1,2-a]pyridin-3-yl-pyrimidin-2-amine] to `COc1cc(CC(=O)O)ccc1Nc1ncc(Cl)c(-c2cnc3ccccn23)n1` [Example 34A, 2-(4-(5-chloro-4-(imidazo[1,2-a]pyridin-3-yl)pyrimidin-2-ylamino)-3-methoxyphenyl)acetic acid], the pIC50 falls from 7.74 to 6.88 (0.86 log units). The first is the more potent here.

`CNC(=O)C1CC(c2ccc(Nc3ncc(Cl)c(-c4cnc5ccccn45)n3)c(OC)c2)CN1` (centres unmarked) [Example 3.27, 4-[4-[(5-chloro-4-imidazo[1,2-a]pyridin-3-yl-pyrimidin-2-yl)amino]-3-methoxy-phenyl]-N-methyl-pyrrolidine-2-carboxamide] and `COc1cc(C2CCN(C(=O)[C@@H](C)O)CC2)ccc1Nc1ncc(Cl)c(-c2cnc3ccccn23)n1` [Example 28.2, (2R)-1-[4-[4-[(5-chloro-4-imidazo[1,2-a]pyridin-3-yl-pyrimidin-2-yl)amino]-3-methoxy-phenyl]-1-piperidyl]-2-hydroxy-propan-1-one] are the same in pIC50: 8.22 for the first, 8.22 for the second.

First: COc1cc(C(=O)N(C)CCO)ccc1Nc1ncc(Cl)c(-c2cnc3ccccn23)n1 [Example 33, 4-[(5-chloro-4-imidazo[1,2-a]pyridin-3-yl-pyrimidin-2-yl)amino]-N-(2-hydroxyethyl)-3-methoxy-N-methyl-benzamide]
Second: COc1cc(C(=O)N2CCN(CCO)CC2)ccc1Nc1ncc(Cl)c(-c2cnc3ccccn23)n1 [Example 32, [4-[(5-chloro-4-imidazo[1,2-a]pyridin-3-yl-pyrimidin-2-yl)amino]-3-methoxy-phenyl]-[4-(2-hydroxyethyl)piperazin-1-yl]methanone]
The pIC50 of the first is 0.48 log units lower: 7.24 for the first, 7.72 for the second.

`COc1cc(C(=O)N2CCNCC2)ccc1Nc1ncc(Cl)c(-c2cnc3ccccn23)n1` [Example 30, [4-[(5-chloro-4-imidazo[1,2-a]pyridin-3-yl-pyrimidin-2-yl)amino]-3-methoxy-phenyl]-piperazin-1-yl-methanone] and `COc1cc(C2CCN(C(C)=O)CC2)ccc1Nc1ncc(C)c(-c2cnc3ccccn23)n1` [Example 99, 1-[4-[4-[(4-imidazo[1,2-a]pyridin-3-yl-5-methyl-pyrimidin-2-yl)amino]-3-methoxy-phenyl]-1-piperidyl]ethanone] are within 0.2 log units of each other in pIC50: 7.48 for the first, 7.62 for the second.

Compared with `COc1cc(C2CCN(C(=O)CO)CC2)ccc1Nc1ncc(C)c(-c2cnc3c(F)cccn23)n1` [Example 198, 1-[4-[4-[[4-(8-fluoroimidazo[1,2-a]pyridin-3-yl)-5-methyl-pyrimidin-2-yl]amino]-3-methoxy-phenyl]-1-piperidyl]-2-hydroxy-ethanone], `COc1cc(C2CCN(C(=O)CO)CC2)ccc1Nc1ncc(Cl)c(-c2cnc3c(F)cccn23)n1` [Example 179, 1-[4-[4-[[5-chloro-4-(8-fluoroimidazo[1,2-a]pyridin-3-yl)pyrimidin-2-yl]amino]-3-methoxy-phenyl]-1-piperidyl]-2-hydroxy-ethanone] is 0.51 log units higher in pIC50: 7.59 for the first, 8.10 for the second.

`COc1cc(C2CCN(C(=O)[C@@H](C)O)CC2)ccc1Nc1ncc(Cl)c(-c2cnn3ccccc23)n1` [Example 138, (2R)-1-[4-[4-[(5-chloro-4-pyrazolo[1,5-a]pyridin-3-yl-pyrimidin-2-yl)amino]-3-methoxy-phenyl]-1-piperidyl]-2-hydroxy-propan-1-one] and `COc1cc(C2CCN(C(=O)CO)CC2)ccc1Nc1ncc(C#N)c(-c2cnn3ccccc23)n1` [Example 240, 2-[4-[1-(2-hydroxyacetyl)-4-piperidyl]-2-methoxy-anilino]-4-pyrazolo[1,5-a]pyridin-3-yl-pyrimidine-5-carbonitrile] are the same in pIC50: 8.52 for the first, 8.52 for the second.

Compared with `COc1cc(C2CCN(C(=O)CO)CC2)ccc1Nc1ncc(Cl)c(-c2cnc3cc(C)ccn23)n1` [Example 245, 1-[4-[4-[[5-chloro-4-(7-methylimidazo[1,2-a]pyridin-3-yl)pyrimidin-2-yl]amino]-3-methoxy-phenyl]-1-piperidyl]-2-hydroxy-ethanone], `COc1cc(N2CCN(C(C)=O)CC2)ccc1Nc1ncc(Cl)c(-c2cnc3ccc(Br)cn23)n1` [Example 126.1, 1-[4-[4-[[4-(6-bromoimidazo[1,2-a]pyridin-3-yl)-5-chloropyrimidin-2-yl]amino]-3-methoxyphenyl]piperazin-1-yl]ethanone] is 0.35 log units lower in pIC50: 8.40 for the first, 8.05 for the second.

First: COc1cc(N2CCN(CC(C)(C)O)CC2)ccc1Nc1ncc(C)c(-c2cnc3ccccn23)n1 [Example 106, 1-[4-[4-[(4-imidazo[1,2-a]pyridin-3-yl-5-methyl-pyrimidin-2-yl)amino]-3-methoxy-phenyl]piperazin-1-yl]-2-methyl-propan-2-ol]
Second: COc1cc(N2CCN(C(C)=O)CC2)ccc1Nc1ncc(C#N)c(-c2cnc3ccccn23)n1 [Example 118, 2-[[4-(4-acetylpiperazin-1-yl)-2-methoxy-phenyl]amino]-4-imidazo[1,2-a]pyridin-3-yl-pyrimidine-5-carbonitrile]
The pIC50 of the first is 0.51 log units higher: 7.55 for the first, 7.04 for the second.

`COc1cc(N2CC(C)N(C(C)=O)C(C)C2)ccc1Nc1ncc(Cl)c(-c2cnc3ccccn23)n1` (centres unmarked) [Example 3.31, 1-[4-[4-[(5-chloro-4-imidazo[1,2-a]pyridin-3-yl-pyrimidin-2-yl)amino]-3-methoxy-phenyl]-2,6-dimethyl-piperazin-1-yl]ethanone] and `COc1cc(N2CCN(C(=O)CN3CCOCC3)CC2)ccc1Nc1ncc(Cl)c(-c2cnc3ccccn23)n1` [Example 275, 1-[4-[4-[(5-chloro-4-imidazo[1,2-a]pyridin-3-yl-pyrimidin-2-yl)amino]-3-methoxy-phenyl]piperazin-1-yl]-2-morpholino-ethanone] are within 0.2 log units of each other in pIC50: 7.96 for the first, 8.05 for the second.

Going from `COc1cc(N2CCN(C(C)=O)CC2)ccc1Nc1ncc(C2CC2)c(-c2cnc3c(F)cccn23)n1` [Example 201, 1-[4-[4-[[5-cyclopropyl-4-(8-fluoroimidazo[1,2-a]pyridin-3-yl)pyrimidin-2-yl]amino]-3-methoxy-phenyl]piperazin-1-yl]ethanone] to `COc1cc(N2CCN(C(C)=O)CC2)ccc1Nc1ncc(C2CC2)c(-c2cnn3ccccc23)n1` [Example 234, 1-[4-[4-[(5-cyclopropyl-4-pyrazolo[1,5-a]pyridin-3-yl-pyrimidin-2-yl)amino]-3-methoxy-phenyl]piperazin-1-yl]ethanone], the pIC50 rises from 7.06 to 7.51 (0.45 log units).

`COc1cc2c(cc1Nc1ncc(F)c(-c3cnn4ccccc34)n1)N(C(=O)CN(C)C)CC2` [Example 176, 2-(dimethylamino)-1-[6-[(5-fluoro-4-pyrazolo[1,5-a]pyridin-3-yl-pyrimidin-2-yl)amino]-5-methoxy-indolin-1-yl]ethanone] was tested, and the pIC50 was 7.66.
